From PubChem BioAssay (NCI)
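Growth conditions: 96-well plates. Treatment: test compound, 48 hours, 5 concentrations. Analysis: linear interpolation between bracketing concentrations; unreached endpoints set to highest concentration. At the TGI there is no net growth.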

How the values were obtained:
Assay in all cases: NCI anticancer screen, dose series, 48 h
[1] = tested on: SF-539 CNS
[2] = tested on: OVCAR-5 ovarian
[3] = tested on: NCI-H226 lung
[4] = tested on: HL-60(TB) leukemia
[5] = tested on: UACC-62 melanoma
[6] = tested on: A498 renal
[7] = tested on: COLO 205 colon
[8] = tested on: RXF 393 renal
[9] = tested on: SK-MEL-5 melanoma
[10] = tested on: SR leukemia
[11] = tested on: KM12 colon
[12] = tested on: MDA-MB-435
[13] = tested on: UO-31 renal
[14] = tested on: DU-145 prostate

Measured: TGI

Fc1ccc(N2C(=S)SC(=Nc3ccccc3)C2=Nc2ccccc2)cc1
> 100 µM: all assays above

CC(=O)Oc1ccc(/C=C/C(=O)OCCCOC(=O)/C=C/c2ccc(OC(C)=O)c(OC(C)=O)c2)cc1OC(C)=O
18.2 µM: [4]
not listed: [3]
> 100 µM: all other assays above

CC(C)=CCN1CC(C)C(=O)Nc2ccccc21 (stereo not given)
not listed: [5]
> 100 µM: all other assays above

CC(=O)NC1C(OCc2ccccc2)OC(CO)C(O)C1OC(C)C(=O)NC(C)C(=O)NC(CCC(=O)NCCCCNc1c2ccccc2nc2cccc([N+](=O)[O-])c12)C(N)=O (stereo not given)
0.339 µM: [13]
0.0539 µM: [10]
0.0506 µM: [7]
0.43 µM: [3]
0.119 µM: [9]
0.049 µM: [14]
0.207 µM: [4]
0.264 µM: [1]
0.105 µM: [12]
0.0676 µM: [8]
0.692 µM: [11]
0.297 µM: [6]
1.65 µM: [2]
0.115 µM: [5]

NC1CC(=O)c2c1sc(Cl)c2Cl (stereo not given)
not listed: [3]
> 100 µM: all other assays above

O=C(NC1CCN(Cc2ccccc2)CC1)c1ccc(I)cc1
85.7 µM: [8]
> 100 µM: all other assays above

CCOC(=O)NNC(=O)NCc1cccc(CNC(=O)NNC(=O)OCC)c1
> 100 µM: all assays above

COc1ccc(OC)c(N(CN2C(=O)CCC2C(=O)O)C(C)=O)c1 (stereo not given)
not listed: [8]
> 100 µM: all other assays above

C=C1CC(c2ccc(OCCCN3C(=O)c4ccccc4C3=O)cc2)OC1=O (stereo not given)
3.56 µM: [6]
16.8 µM: [11]
4.75 µM: [5]
6.37 µM: [7]
20.4 µM: [9]
16.3 µM: [14]
25.5 µM: [2]
3.65 µM: [8]
9.2 µM: [12]
8.57 µM: [10]
7.81 µM: [13]
0.827 µM: [1]
5.22 µM: [4]
11.4 µM: [3]

CCOP1(=O)CC(C)=C(Cl)C(O)C1 (stereo not given)
> 100 µM: all assays above

N#Cc1nc(-c2ccco2)oc1N
not listed: [6]
> 10 µM: all other assays above

CCOC(=O)C1(C(=O)OCC)[C@@H](c2ccccc2)C2=NO[C@@H]3CCC[C@H]1[C@H]23
53.6 µM: [12]
not listed: [6]
> 100 µM: all other assays above

COC(=O)c1cc2c(c3c1CC(Cc1ccccc1)C3=O)CCC2 (stereo not given)
41.8 µM: [11]
not listed: [13]
> 100 µM: all other assays above

COc1cc2c(c(O)c1OC)C(=O)[C@@H]1CCC(=O)N1C2
not listed: [8]
> 100 µM: all other assays above

CCc1c(C)c(C#N)c(=S)n(C2OC(COC(C)=O)C(OC(C)=O)C(OC(C)=O)C2OC(C)=O)c1-c1ccccc1 (stereo not given)
> 100 µM: [4]
not listed: [5] | [8]
> 31.6 µM: all other assays above

Cc1ccc(-c2nc(N/N=C/C=C/c3ccccc3)c3ccccc3n2)cc1
96.4 µM: [14]
99.6 µM: [8]
48.1 µM: [2] | [5]
not listed: [6]
> 100 µM: all other assays above

Oc1ccc2cc(Br)ccc2c1-c1c(O)ccc2ccc(Br)cc12
28.8 µM: [13]
30.4 µM: [3]
32.1 µM: [6]
29.2 µM: [14]
34.8 µM: [1]
37.5 µM: [9]
26.5 µM: [7]
31 µM: [5]
52.4 µM: [10]
30.8 µM: [2]
18.9 µM: [11]
38.2 µM: [4]
31.1 µM: [12]

CC1(C)OCC([C@H]2O[C@@H](CC(=S)NCCCCCCCCCCCCNC(=S)C[C@H]3O[C@@H](C4COC(C)(C)O4)[C@H]4OC(C)(C)O[C@H]43)[C@H]3OC(C)(C)O[C@H]32)O1 (stereo not given in full)
95 µM: [13]
92.4 µM: [9]
not listed: [5] | [7]
> 100 µM: all other assays above

CC1=NN(c2nc(N)nc(/C(C#N)=C\c3csc([N+](=O)[O-])c3)n2)C(C)(C)C1
76 µM: [3]
44.7 µM: [8]
not listed: [5] | [7]
> 100 µM: all other assays above

Nc1ccc2c(c1)nc1n2C(c2c(F)cccc2F)SC1 (stereo not given)
not listed: [3]
> 100 µM: all other assays above

Cc1nc2ccc(C(F)(F)F)cc2nc1NCc1ccc(Cl)c(Cl)c1
30.1 µM: [11]
29.9 µM: [13]
26.5 µM: [8]
33.7 µM: [1]
18.5 µM: [5]
30.6 µM: [7]
33.8 µM: [9]
31.8 µM: [12] | [14]
25.9 µM: [2]
34.7 µM: [4]
32.7 µM: [10]
37.9 µM: [3]

COc1ccc(OC)c(CNc2ccc(C(=O)O)cc2)c1
not listed: [8]
> 100 µM: all other assays above

O=c1[nH]c(=S)nc2nc3c4ccc[nH]c4c4ccccc4c3nc12
66.1 µM: [4]
not listed: [3]
> 100 µM: all other assays above

COc1ccc(/C(Br)=C2\OC(=O)c3ccccc32)cc1
not listed: [6]
> 10 µM: all other assays above

CC1(C)OC(=S)N(c2ccccc2)C12C=Cc1ccccc1O2 (stereo not given)
37.2 µM: [10]
52.4 µM: [4]
not listed: [1]
> 100 µM: all other assays above

CCCCc1ccc(-n2sc3ncc(C)cc3c2=O)cc1
46.2 µM: [9]
20.2 µM: [13]
46.3 µM: [7]
73.8 µM: [8]
57.6 µM: [2]
32.7 µM: [4]
not listed: [1] | [6]
> 100 µM: all other assays above
